Assays:
Brown Norway rats [1] = experiment: Probabilistic reversal learning task (PRLT), single (acute) administration of oxytocin; format: in vivo, rat
Text: (§1) Probabilistic learning, an aspect of executive function, can be assessed in rodents using a probabilistic reversal learning task (PRLT). A PRLT is typically a 1-hour test using two recessed lights in the back of the operant chamber as stimuli (see, FIGS. 2, 3 and 4). After illumination and subsequent extinguishing of the magazine light via nose-poke, a 2 second inter-trial interval occurs, which is then immediately followed by a 10 second period during which two apertures are illuminated wherein the rat can respond via nose-poke. One of the two stimuli is designated the target stimulus, and responses to it are rewarded more frequently (e.g., rewarded 80% of the time) (aperture light extinguished and reward delivered into the magazine) and punished less frequently (e.g., 20% of the time) (aperture light extinguished and house light illuminated for a 4-second timeout period during which no reward was delivered). The other stimulus was designated the non-target stimulus, to which responses are rewarded less frequently (e.g., 20% of the time) and punished more frequently (80% of the time). Initial target and non-target locations are alternated among the testing chambers such that the first target of the session is, for example, the left light in four of the eight chambers, and the right in the others. […] After first criterion acquisition, the target and non-target locations are reversed. The subject then has to recognize that this change, or “switch,” had occurred and adjust its responses accordingly. After another 8 consecutive correct responses, the ratios are switched again. This pattern is repeated for the remainder of the 1-hour session. The number of switches the subject is able to complete within the testing period was the primary outcome variable of PRLT to measure reversal learning. An additional primary outcome measure, trials to first criterion, provided a measure of initial reinforcement learning without the confound of reversal learning included.
(§2) Several latency measures included mean target latency (millisecond (ms) to respond in the target stimulus), mean non-target latency (ms to respond in the non-target stimulus), and mean reward latency (ms to collect the reward).
(§3) Rats (Brown Norway rats or Long Evans rats) executive function was tested using a nine-choice operant box (e.g., see FIG. 2). The nine-choice operant box has nine depressions in which a rat can poke its nose into (see FIG. 2), where each depression comprises a light emitting diode (LED). A rat was placed in the box and two of the LEDs were illuminated (e.g., see FIG. 3). One LED, the ‘target’, rewarded a rat's nose poke 80% of the time with food while the other LED, the ‘nontarget’, rewarded a rat's nose poke only 20% of the time. After eight consecutive responses in which the ‘target’ LED was selected, the reward ratios for the two LED's were switched, and the next block of testing was begun. Brown Norway rats were used as test subjects while Long Evans rats were used as controls.
(§4) Scoring of executive function was based on the number of switches a rat was able to complete within a one-hour test period, as well as the number of block changes a rat can progress through. In particular, the scoring and conclusions of executive function were made as follows:
(§5) A primary measure of executive function. The number of times the ‘target’ stimulus switches following eight consecutive “correct” responses by the subject. The number of switches a rat is able to complete within a one-hour test period indicates how quickly the rat is able to detect and adjust to reversals. The more switches completed by the rat, the better the executive function of the rat.
(§6) A primary measure of executive function. Indicates how quickly rat was able to progress through the blocks—the block changes whenever the target switches, so if the subject completed five blocks and is working on the sixth when the one hour testing session ends. […]

humans = humans treated with oxytocin, reported; cited from earlier work
Brown Norway rats [2] = experiment: Probabilistic reversal learning task (PRLT) after long-term (21 days) administration of oxytocin; format: in vivo, rat
Text: as §1, §2, §3, §4, §5, §6

[3] = oxytocin 1.00 mg/kg, Brown Norway rats

## CC[C@H](C)[C@@H]1NC(=O)[C@H](Cc2ccc(O)cc2)NC(=O)[C@@H](N)CSSC[C@@H](C(=O)N2CCC[C@H]2C(=O)N[C@@H](CC(C)C)C(=O)NCC(N)=O)NC(=O)[C@H](CC(N)=O)NC(=O)[C@H](CCC(N)=O)NC1=O [oxytocin]
Brown Norway rats [1]; BN rats, 1.00 mg/kg vs. lower doses 0.04 mg/kg and 0.20 mg/kg
  executive function, effect of dose: dose dependent
Brown Norway rats [1]; acute OT 0.04 mg/kg, BN rats vs. vehicle-treated LE rats
  number of switches in the PRLT: fewer switches
Brown Norway rats [1]; acute OT 1 mg/k/g, BN rats vs. both vehicle-treated BN and LE rats
  total trials to initial criterion: reduced
Brown Norway rats [1]; acute OT 1 mg/kg, BN rats vs. vehicle
  total number of switches completed in the PRLT: increased
Brown Norway rats [1]; administration of oxytocin
  probabilistic learning of subjects: significantly improved
Brown Norway rats [1]; [3]
  improvement in executive function: significant
Brown Norway rats [1]; oxytocin administered to Brown Norway rats, dose not stated
  number of switches: increased
Brown Norway rats [1]; oxytocin administered to animal subjects
  executive function of the animal subjects: significantly improved
humans
  cognitive performance and memory: Impairments
Brown Norway rats [2]; 1 mg/kg OT vs. vehicle in BN rats, long-term administration
  trials to first criterion: appears to reduce
Brown Norway rats [2]; BN rats previously treated with 0.04 mg/kg OT compared with LE rats
  number of switches in the PRLT: LE rats exhibited more switches
Brown Norway rats [2]; BN rats previously treated with 0.2 mg/kg OT compared with LE rats
  number of switches in the PRLT: LE rats exhibited more switches
Brown Norway rats [2]; BN rats treated with 1 mg/kg OT vs. vehicle-treated BN rats, long-term administration
  number of switches in the PRLT: significantly more switches
Brown Norway rats [2]; BN rats, 1.0 mg/kg OT for 21 days, tested approximately one week or more after discontinuation
  executive function after discontinuation of OT: persistent improvement
Brown Norway rats [2]; [3]
  time post treatment at which improvement of executive function was seen: 7 days

From patent publication US20200000873A1, “METHODS FOR IMPROVING THE COGNITIVE FUNCTIONS OF A SUBJECT” (The Regents of the University of California, priority 2017, published 2020)
